{"source": "patent US12252490B2", "about": "“Inhibiting deubiquitinase USP25 and USP28” (Valo Health, Inc., priority 2018, dated 2025)", "data": [{"target": "T1, USP28 (USP28-5(1-1077)-TEV-6*His; LifeSensors) (Homo sapiens, UniProt Q96RU2)", "T1 construct": "construct USP28 (USP28-5(1-1077)-TEV-6*His; LifeSensors); TEV cleavage site (C); 6xHis (C); purchased LifeSensors", "T1 sequence (Q96RU2 1-1077)": "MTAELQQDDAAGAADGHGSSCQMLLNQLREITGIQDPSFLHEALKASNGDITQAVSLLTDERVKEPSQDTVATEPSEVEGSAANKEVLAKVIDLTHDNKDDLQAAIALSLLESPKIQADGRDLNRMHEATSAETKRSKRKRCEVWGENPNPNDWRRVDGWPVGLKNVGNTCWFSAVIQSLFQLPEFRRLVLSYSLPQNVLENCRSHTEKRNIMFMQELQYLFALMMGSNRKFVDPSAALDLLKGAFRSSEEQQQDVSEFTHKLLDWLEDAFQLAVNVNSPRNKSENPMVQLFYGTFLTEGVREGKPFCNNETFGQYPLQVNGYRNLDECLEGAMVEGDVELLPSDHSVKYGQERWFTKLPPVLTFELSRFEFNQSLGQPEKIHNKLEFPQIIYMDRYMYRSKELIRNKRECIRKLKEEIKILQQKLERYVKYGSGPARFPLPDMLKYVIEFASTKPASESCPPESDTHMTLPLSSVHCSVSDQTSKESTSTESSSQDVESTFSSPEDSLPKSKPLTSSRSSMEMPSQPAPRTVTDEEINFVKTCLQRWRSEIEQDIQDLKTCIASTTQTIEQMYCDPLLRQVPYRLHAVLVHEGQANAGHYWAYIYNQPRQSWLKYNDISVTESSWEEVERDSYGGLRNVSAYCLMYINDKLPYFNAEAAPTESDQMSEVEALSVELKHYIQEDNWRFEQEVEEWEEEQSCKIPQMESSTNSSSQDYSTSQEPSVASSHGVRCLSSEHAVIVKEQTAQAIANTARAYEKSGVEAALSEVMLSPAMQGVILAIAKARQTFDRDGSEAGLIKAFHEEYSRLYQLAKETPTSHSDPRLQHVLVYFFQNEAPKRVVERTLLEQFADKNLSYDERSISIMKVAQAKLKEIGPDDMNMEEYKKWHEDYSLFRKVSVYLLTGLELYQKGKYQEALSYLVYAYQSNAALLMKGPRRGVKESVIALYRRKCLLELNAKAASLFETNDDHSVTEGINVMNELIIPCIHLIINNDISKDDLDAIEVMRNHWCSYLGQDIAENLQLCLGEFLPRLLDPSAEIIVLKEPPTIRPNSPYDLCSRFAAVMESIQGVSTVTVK", "assay": "Ubiquitin-Rhodamine 110 Assay for USP28 Activity, Example A-1(b)", "format": "biochemical", "details": "75 pM enzyme, 25 nM Ub-Rh110, 384-well follow-up format", "method": "Each assay was performed in a final volume of 20 μL in assay buffer containing 20 mM Tris-HCl (pH 8.0, (1M Tris-HCl, pH 8.0 solution; Corning 46-031-CM)), 2 mM CaCl2 (1M Calcium Chloride solution; Sigma #21114) 2 mM BME (2-Mercaptoethanol; Sigma 63689-25ML-F), 0.01% Prionex ([…] filtered, Sigma #G-0411), and 0.01% Triton X-100. Stock compound solutions were stored at −20° C. as 10 mM in DMSO. Up to 1 month prior to the assay, 2 mM test compounds were pre-dispensed into assay plates (Black, low volume; Corning #3820) and frozen at −20° C. Prestamped assay plates were allowed to come to room temperature on the day of the assay. For the screen, 100 nL of 2 mM was pre-dispensed for a final screening concentration of 10 μM (DMSO(fc)=0.5%). Enzyme (USP28, construct USP28 (USP28-5(1-1077)-TEV-6*His; LifeSensors) concentration and incubation times were optimized for the maximal signal-to-background while maintaining initial velocity conditions at a fixed substrate concentration. The final concentration of the enzyme in the assay was 400 pM. Final substrate (Ub-Rh110; Ubiquitin-Rhodamine 110, R&D Systems #U-555) concentration was 25 nM with [Ub-Rh110]<<Km. 10 μL of 2× enzyme was added to assay plates (pre-stamped with compound) either simultaneously with 2×Ub-Rh110 or preincubated with USP28 40 minutes prior to the addition of 10 μL of 2×Ub-Rh110 to compound plates. Plates were incubated stacked for 90 minutes at room temperature before fluorescence was read on the Envision (Excitation at 485 nm and Emission at 535 nm; Perkin Elmer) or on the PheraSTAR (Excitation at 485 nm and Emission at 535 nm; BMG Labtech).\nFor follow-up studies, each assay was performed in a final volume of 15 μL in assay buffer containing 20 mM Tris-HCl (pH 8.0, (1M Tris-HCl, pH 8.0 solution; Corning 46-031-CM)), 3 mM BME (2-Mercaptoethanol; Sigma 63689-25ML-F), 0.03% BGG (0.22 μM filtered, Sigma, G7516-25G), and 0.01% Triton X-100 (Sigma, T9284-10L). Nanoliter quantities of either an 8-point or 10-point, 3-fold serial dilution in DMSO was pre-dispensed into assay plates (Perkin Elmer, ProxiPlate-384 F Plus, #) for a final test concentration of either 25 μM to 11 nM or 25 μM to 1.3 nM, respectively. Enzyme USP28, construct USP28 (USP28-5(1-1077)-TEV-6*His; LifeSensors) concentration and incubation times were optimized for the maximal signal-to-background while maintaining initial velocity conditions at a fixed substrate concentration. The final concentration of the enzyme in the assay was 75 pM. Final substrate (Ub-Rh110; Ubiquitin-Rhodamine 110, R&D Systems #U-555) concentration was 25 nM with [Ub-Rh110]<<Km. 5 μL of 2× enzyme was added to assay plates (pre-stamped with compound) preincubated with USP28 for 30 minutes and then 5 μL of 2×Ub-Rh110 was added to assay plates. Plates were incubated stacked for 20 minutes at room temperature before 5 μL of stop solution was added (final concentration of 10 mM citric acid (Sigma, 251275-500G)). Fluorescence was read on the Envision (Excitation at 485 nm and Emission at 535 nm; Perkin Elmer) or on the PheraSTAR (Excitation at 485 nm and Emission at 535 nm; BMG Labtech).\nFor assay formats Examples A-1a, A-1b, and A-2, data were reported as percent inhibition compared with control wells based on the following equation: % inh=1−((FLU−AveLow)/(AveHigh−AveLow)) where FLU=measured Fluorescence, AveLow=average Fluorescence of no enzyme control (n=16), and AveHigh=average Fluorescence of DMSO control (n=16). IC50 values were determined by curve fitting of the standard 4 parameter logistic fitting algorithm included in the Activity Base software package: IDBS XE Designer Model205. Data is fitted using the Levenburg Marquardt algorithm.", "values": [{"compound": "CC(C)(O)Cn1ccc2cc(C(=O)NCCc3cc(F)c(N4CC5CCC(C4)N5)cc3F)cnc21", "note": "[Example 1-9, N-(4-(3,8-diazabicyclo[3.2.1]octan-3-yl)-2,5-difluorophenethyl)-1-(2-hydroxy-2-methylpropyl)-1H-pyrrolo[2,3-b]pyridine-5-carboxamide]", "Assay A-1(b) (IC50 range)": "− (“−”: >10 μM)"}, {"compound": "CCn1ccc2cc(C(=O)NC[C@@H](C)c3cc(F)c(N4CCNCC4)cc3F)cnc21", "note": "(single isomer, unassigned) [Example 2-1]", "Assay A-1(b) (IC50 range)": "++ (“++”: 0.2-2 μM)"}, {"compound": "CCn1ccc2cc(C(=O)NC[C@H](C)c3cc(F)c(N4CC5CCC(C4)N5)cc3F)cnc21", "note": "(single isomer, unassigned) [Example 2-3]", "Assay A-1(b) (IC50 range)": "++ (“++”: 0.2-2 μM)"}, {"compound": "O=C(NCCc1ccc(N2CCNCC2)cc1)c1cnc2[nH]cc(Cl)c2c1", "note": "[Example 3-2, 3-chloro-N-(4-(piperazin-1-yl)phenethyl)-1H-pyrrolo[2,3-b]pyridine-5-carboxamide]", "Assay A-1(b) (IC50 range)": "+ (“+”: 2-10 μM)"}, {"compound": "CCn1cc(Cl)c2cc(C(=O)NCCc3ccc(N4CCNCC4)cc3)cnc21", "note": "[Example 3-1, 3-Chloro-1-ethyl-N-[2-[4-(piperazin-1-yl)phenyl]ethyl]-1H-pyrrolo[2,3-b]pyridine-5-carboxamide]", "Assay A-1(b) (IC50 range)": "+++ (“+++”: 0.05-0.2 μM)"}, {"compound": "CCn1ccc2cc(C(=O)NCCc3cc(F)c(N4CCNCC4)cc3F)cnc21", "note": "[Example 1-7, N-(2,5-difluoro-4-(piperazin-1-yl)phenethyl)-1-ethyl-1H-pyrrolo[2,3-b]pyridine-5-carboxamide]", "Assay A-1(b) (IC50 range)": "+++ (“+++”: 0.05-0.2 μM)"}, {"compound": "CCn1ccc2cc(C(=O)NCCc3ccc(N4CC5CCC(C4)N5)cc3)cnc21", "note": "[Example 1-6, N-(4-(3,8-diazabicyclo[3.2.1]octan-3-yl)phenethyl)-1-ethyl-1H-pyrrolo[2,3-b]pyridine-5-carboxamide]", "Assay A-1(b) (IC50 range)": "++++ (“++++”: 0.001-0.05 μM)"}, {"compound": "CCn1cc(Cl)c2cc(C(=O)NCCc3cc(F)c(N4CC5CCC(C4)N5)cc3F)nnc21", "note": "[Example 4-4, N-(4-(3,8-diazabicyclo[3.2.1]octan-3-yl)-2,5-difluorophenethyl)-5-chloro-7-ethyl-7H-pyrrolo[2,3-c]pyridazine-3-carboxamide]", "Assay A-1(b) (IC50 range)": "+++ (“+++”: 0.05-0.2 μM)"}, {"compound": "CCn1ccc2cc(C(=O)NC[C@H](C)c3cc(F)c(N4CC5CCC(C4)N5)cc3F)nnc21", "note": "(single isomer, unassigned) [Example 4-2]", "Assay A-1(b) (IC50 range)": "++ (“++”: 0.2-2 μM)"}, {"compound": "CCn1ccc2cc(C(=O)NC[C@H](C)c3cc(F)c(N4CCNCC4)cc3F)cnc21", "note": "(single isomer, unassigned) [Example 2-2]", "Assay A-1(b) (IC50 range)": "+ (“+”: 2-10 μM)"}, {"compound": "CCn1ccc2cc(C(=O)NCCc3ccc(N4CC5CCC(C4)N5)c(F)c3)cnc21", "note": "[Example 1-10, N-(4-(3,8-diazabicyclo[3.2.1]octan-3-yl)-3-fluorophenethyl)-1-ethyl-1H-pyrrolo[2,3-b]pyridine-5-carboxamide]", "Assay A-1(b) (IC50 range)": "+++ (“+++”: 0.05-0.2 μM)"}, {"compound": "Nc1c(C(=O)NCCc2ccc(N3CCNCC3)cc2)cnc2[nH]ccc12", "note": "[Example 1-5, 4-amino-N-(4-(piperazin-1-yl)phenethyl)-1H-pyrrolo[2,3-b]pyridine-5-carboxamide]", "Assay A-1(b) (IC50 range)": "+ (“+”: 2-10 μM)"}, {"compound": "Cn1ccc2cc(C(=O)NCCc3ccc(N4CCNCC4)cc3)cnc21", "note": "[Example 1-3, 1-methyl-N-(4-(piperazin-1-yl)phenethyl)-1H-pyrrolo[2,3-b]pyridine-5-carboxamide]", "Assay A-1(b) (IC50 range)": "++ (“++”: 0.2-2 μM)"}, {"compound": "CCn1ccc2cc(C(=O)NC[C@@H](C)c3cc(F)c(N4CC5CCC(C4)N5)cc3F)cnc21", "note": "(single isomer, unassigned) [Example 2-4]", "Assay A-1(b) (IC50 range)": "++ (“++”: 0.2-2 μM)"}, {"compound": "O=C(NCCc1ccc(N2CCNCC2)cc1)c1cnc2[nH]ccc2c1", "note": "[Example 1-2, N-(4-(piperazin-1-yl)phenethyl)-1H-pyrrolo[2,3-b]pyridine-5-carboxamide]", "Assay A-1(b) (IC50 range)": "+ (“+”: 2-10 μM)"}, {"compound": "O=C(NCCc1ccc(N2CCNCC2)cc1)c1cnc2c(ccn2CC(F)(F)F)c1", "note": "[Example 1-8]", "Assay A-1(b) (IC50 range)": "+++ (“+++”: 0.05-0.2 μM)"}, {"compound": "CCn1ccc2cc(C(=O)NCCc3ccc(N4CCNCC4)cc3)cnc21", "note": "[Example 1-4, 1-ethyl-N-(4-(piperazin-1-yl)phenethyl)-1H-pyrrolo[2,3-b]pyridine-5-carboxamide]", "Assay A-1(b) (IC50 range)": "+++ (“+++”: 0.05-0.2 μM)"}, {"compound": "CCn1ccc2cc(C(=O)NCCc3cc(F)c(N4CC5CCC(C4)N5)cc3F)cnc21", "note": "[Example 1-1, N-[2-(4-[3,8-diazabicyclo[3.2.1]octan-3-yl]-2,5-difluorophenyl)ethyl]-1-ethyl-1H-pyrrolo[2,3-b]pyridine-5-carboxamide]", "Assay A-1(b) (IC50 range)": "+++ (“+++”: 0.05-0.2 μM)"}, {"compound": "CCn1ccc2cc(C(=O)NCCc3cc(F)c(N4CC5CCC(C4)N5)cc3F)nnc21", "note": "[Example 4-1, N-[2-(4-[3,8-diazabicyclo[3.2.1]octan-3-yl]-2,5-difluorophenyl)ethyl]-7-ethyl-7H-pyrrolo[2,3-c]pyridazine-3-carboxamide]", "Assay A-1(b) (IC50 range)": "+++ (“+++”: 0.05-0.2 μM)"}, {"compound": "CCn1ccc2cc(C(=O)NC[C@@H](C)c3cc(F)c(N4CC5CCC(C4)N5)cc3F)nnc21", "note": "(single isomer, unassigned) [Example 4-3]", "Assay A-1(b) (IC50 range)": "++ (“++”: 0.2-2 μM)"}]}]}
